From patent US5814655A, “Non-steroidal ophthalmic mixtures” (InSite Vision Incorporated, priority 1996, dated 1998)
Values belong to the compound of their own block, whether it stands above or below them.

Test: Percent of drug in suspension as a function of concentration in the formulation and pH
Format: physicochemical
[1] = pH 4.0, concentration in the formulation 1.0
[2] = pH 4.0, concentration in the formulation .001
[3] = pH 4.0, concentration in the formulation .01
[4] = pH 4.0, concentration in the formulation .1
[5] = pH 4.0, concentration in the formulation 5.0
[6] = pH 5.0, concentration in the formulation 1.0
[7] = pH 5.0, concentration in the formulation 5.0
[8] = pH 5.0, concentration in the formulation .001
[9] = pH 5.0, concentration in the formulation .01
[10] = pH 5.0, concentration in the formulation .1
[11] = pH 6.0, concentration in the formulation 1.0
[12] = pH 6.0, concentration in the formulation 5.0
[13] = pH 6.0, concentration in the formulation .001
[14] = pH 6.0, concentration in the formulation .01
[15] = pH 6.0, concentration in the formulation .1
[16] = pH 7.0, concentration in the formulation 1.0
[17] = pH 7.0, concentration in the formulation 5.0
[18] = pH 7.0, concentration in the formulation .001
[19] = pH 7.0, concentration in the formulation .01
[20] = pH 7.0, concentration in the formulation .1

SMILES: O=C(O)Cc1ccccc1Nc1c(Cl)cccc1Cl [Diclofenac Sodium, sodium ortho-(2,6-dichlorophenyl)aminophenylacetate acid]
- diclofenac in suspension (in words) (below a pH of about 6.8, formulation containing 1% diclofenac sodium): virtually all
- Percent Diclofenac Sodium in Suspension (pH 3.7, concentration in the formulation 1.0): 100%
- Percent Diclofenac Sodium in Suspension (pH 3.7, concentration in the formulation .001): 100%
- Percent Diclofenac Sodium in Suspension (pH 3.7, concentration in the formulation .01): 100%
- Percent Diclofenac Sodium in Suspension (pH 3.7, concentration in the formulation .1): 100%
- Percent Diclofenac Sodium in Suspension [1]: 99%
- Percent Diclofenac Sodium in Suspension [2]: 99%
- Percent Diclofenac Sodium in Suspension [3]: 99%
- Percent Diclofenac Sodium in Suspension [4]: 99%
- Percent Diclofenac Sodium in Suspension (pH 4.6, concentration in the formulation 1.0): 99%
- Percent Diclofenac Sodium in Suspension (pH 4.6, concentration in the formulation .001): 90%
- Percent Diclofenac Sodium in Suspension (pH 4.6, concentration in the formulation .01): 99%
- Percent Diclofenac Sodium in Suspension (pH 4.6, concentration in the formulation .1): 99%
- Percent Diclofenac Sodium in Suspension (pH 5.2, concentration in the formulation 1.0): 99%
- Percent Diclofenac Sodium in Suspension (pH 5.2, concentration in the formulation .001): 20%
- Percent Diclofenac Sodium in Suspension (pH 5.2, concentration in the formulation .01): 92%
- Percent Diclofenac Sodium in Suspension (pH 5.2, concentration in the formulation .1): 99%
- Percent Diclofenac Sodium in Suspension (pH 5.9, concentration in the formulation 1.0): 99%
- Percent Diclofenac Sodium in Suspension (pH 5.9, concentration in the formulation .001): 0%
- Percent Diclofenac Sodium in Suspension (pH 5.9, concentration in the formulation .01): 50%
- Percent Diclofenac Sodium in Suspension (pH 5.9, concentration in the formulation .1): 95%
- Percent Diclofenac Sodium in Suspension (pH 6.3, concentration in the formulation 1.0): 98%
- Percent Diclofenac Sodium in Suspension (pH 6.3, concentration in the formulation .001): 0%
- Percent Diclofenac Sodium in Suspension (pH 6.3, concentration in the formulation .01): 0%
- Percent Diclofenac Sodium in Suspension (pH 6.3, concentration in the formulation .1): 76%
- Percent Diclofenac Sodium in Suspension (pH 6.5, concentration in the formulation 1.0): 93%
- Percent Diclofenac Sodium in Suspension (pH 6.5, concentration in the formulation .001): 0%
- Percent Diclofenac Sodium in Suspension (pH 6.5, concentration in the formulation .01): 0%
- Percent Diclofenac Sodium in Suspension (pH 6.5, concentration in the formulation .1): 35%
- Percent Diclofenac Sodium in Suspension (pH 7.3, concentration in the formulation 1.0): 64%
- Percent Diclofenac Sodium in Suspension (pH 7.3, concentration in the formulation .001): 0%
- Percent Diclofenac Sodium in Suspension (pH 7.3, concentration in the formulation .01): 0%
- Percent Diclofenac Sodium in Suspension (pH 7.3, concentration in the formulation .1): 0%

- Percent Flurbiprofen in Suspension [1]: 99%
- Percent Flurbiprofen in Suspension [5]: 99%
- Percent Flurbiprofen in Suspension [2]: 20%
- Percent Flurbiprofen in Suspension [3]: 92%
- Percent Flurbiprofen in Suspension [4]: 99%
- Percent Flurbiprofen in Suspension [6]: 99%
- Percent Flurbiprofen in Suspension [7]: 99%
- Percent Flurbiprofen in Suspension [8]: 0%
- Percent Flurbiprofen in Suspension [9]: 33%
- Percent Flurbiprofen in Suspension [10]: 93%
- Percent Flurbiprofen in Suspension [11]: 80%
- Percent Flurbiprofen in Suspension [12]: 98%
- Percent Flurbiprofen in Suspension [13]: 0%
- Percent Flurbiprofen in Suspension [14]: 0%
- Percent Flurbiprofen in Suspension [15]: 0%
- Percent Flurbiprofen in Suspension [16]: 24%
- Percent Flurbiprofen in Suspension [17]: 92%
- Percent Flurbiprofen in Suspension [18]: 0%
- Percent Flurbiprofen in Suspension [19]: 0%
- Percent Flurbiprofen in Suspension [20]: 0%
SMILES: CC(C(=O)O)c1ccc(-c2ccccc2)c(F)c1 (stereo not shown) [Flurbiprofen]

- Percent Suprofen in Suspension [1]: 98%
- Percent Suprofen in Suspension [5]: 99%
- Percent Suprofen in Suspension [2]: 0%
- Percent Suprofen in Suspension [3]: 0%
- Percent Suprofen in Suspension [4]: 77%
- Percent Suprofen in Suspension [6]: 95%
- Percent Suprofen in Suspension [7]: 99%
- Percent Suprofen in Suspension [8]: 0%
- Percent Suprofen in Suspension [9]: 0%
- Percent Suprofen in Suspension [10]: 45%
- Percent Suprofen in Suspension [11]: 54%
- Percent Suprofen in Suspension [12]: 95%
- Percent Suprofen in Suspension [13]: 0%
- Percent Suprofen in Suspension [14]: 0%
- Percent Suprofen in Suspension [15]: 0%
- Percent Suprofen in Suspension [16]: 0%
- Percent Suprofen in Suspension [17]: 68%
- Percent Suprofen in Suspension [18]: 0%
- Percent Suprofen in Suspension [19]: 0%
- Percent Suprofen in Suspension [20]: 0%
SMILES: CC(C(=O)O)c1ccc(C(=O)c2cccs2)cc1 (stereo not shown) [Suprofen]
